The source made the active and inactive calls. No cut-off for these calls is given here.
How the values were obtained:
Mus musculus [1] = assay: Neurotoxicity in CF-1 albino mouse at 300 mg/kg, ip after 4 hrs by rotarod test; assay type: toxicity, organism-based; design: dose 300 mg/kg, route intraperitoneal; settings: in vivo
Rattus norvegicus [2] = assay: Anticonvulsant activity in Sprague-Dawley albino rat assessed as protection against maximal electroshock-induced seizures at 30 mg/kg, po after 4 hrs; assay type: functional
[3] = Neurotoxicity in po dosed Sprague-Dawley albino rat at 30 mg/kg, po after 0.25 to 4 hrs by rotarod test; assay type: toxicity, organism-based; design: dose 30 mg/kg, route oral; settings: in vivo
Vibrio harveyi [4] = assay: Antimutagenic activity in Vibrio harveyi BB7XM assessed as inhibition of 4-nitroquinoline-N-oxide-induced mutation; assay type: functional
Mus musculus [5] = assay: Anticonvulsant activity in CF-1 albino mouse assessed as protection against 6 Hz psychomotor seizure at 100 mg/kg, ip after 0.25 to 4 hrs; assay type: functional; settings: route intraperitoneal
Vibrio harveyi [6] = assay: Antimutagenic activity in Vibrio harveyi BB7X assessed as inhibition of 4-nitroquinoline-N-oxide-induced mutation; assay type: functional
Mus musculus [7] = assay: Anticonvulsant activity in CF-1 albino mouse assessed as time of peak effect for protection against maximal electroshock-induced seizures at 30 to 300 mg/kg, ip; assay type: functional; settings: dose mg/kg 30-300; route intraperitoneal
Mus musculus [8] = assay: Anticonvulsant activity in ip dosed CF-1 albino mouse assessed as protection against maximal electroshock-induced seizures after 0.5 to 4 hrs; assay type: functional
Mus musculus [9] = assay: Anticonvulsant activity in CF-1 albino mouse assessed as protection against 6 Hz psychomotor seizure at 100 mg/kg, ip after 0.25 hrs; assay type: functional
Rattus norvegicus [10] = assay: Anticonvulsant activity in Sprague-Dawley albino rat assessed as protection against maximal electroshock-induced seizures at 30 mg/kg, po after 1 hr; assay type: functional
Vibrio harveyi [11] = assay: Induction of mutagenecity in Vibrio harveyi BB7XM; assay type: organism-based; settings: in vivo
Rattus norvegicus [12] = assay: Anticonvulsant activity in Sprague-Dawley albino rat assessed as protection against maximal electroshock-induced seizures at 30 mg/kg, po after 0.25 hrs; assay type: functional
Vibrio harveyi [13] = assay: Induction of mutagenecity in Vibrio harveyi BB7; assay type: organism-based; settings: in vivo
Vibrio harveyi [14] = assay: Induction of mutagenecity in Vibrio harveyi BB7M; assay type: organism-based; settings: in vivo
[15] = Neurotoxicity in ip dosed CF-1 albino mouse after 0.5 hrs by rotarod test; assay type: toxicity, organism-based; settings: CF-1, mouse, in vivo
Rattus norvegicus [16] = assay: Anticonvulsant activity in po dosed Sprague-Dawley albino rat assessed as protection against maximal electroshock-induced seizures after 0.25 to 4 hrs; assay type: functional
Rattus norvegicus [17] = species: Rattus norvegicus; assay: Protective index, ratio of TD50 for Sprague-Dawley albino rat by rotarod test to ED50 for Sprague-Dawley albino rat; assay type: functional
Mus musculus [18] = assay: Anticonvulsant activity in CF-1 albino mouse assessed as protection against 6 Hz psychomotor seizure at 100 mg/kg, ip after 1 hr; assay type: functional; settings: route intraperitoneal
Mus musculus [19] = species: Mus musculus; assay: Protective index, ratio of TD50 for CF-1 albino mouse by rotarod test to ED50 for CF-1 albino mouse; assay type: functional
[20] = Neurotoxicity in ip dosed CF-1 albino mouse at 30 to 300 mg/kg, ip after 0.5 to 4 hrs; assay type: toxicity, organism-based; design: route intraperitoneal; settings: CF-1, mouse, in vivo
Mus musculus [21] = assay: Anticonvulsant activity in CF-1 albino mouse assessed as protection against 6 Hz psychomotor seizure at 100 mg/kg, ip after 2 hrs; assay type: functional
Vibrio harveyi [22] = assay: Antimutagenic activity in Vibrio harveyi BB7 assessed as inhibition of 4-nitroquinoline-N-oxide-induced mutation; assay type: functional
Rattus norvegicus [23] = assay: Anticonvulsant activity in Sprague-Dawley albino rat assessed as protection against maximal electroshock-induced seizures at 30 mg/kg, po after 0.5 hrs; assay type: functional
Mus musculus [24] = assay: Anticonvulsant activity in ip dosed CF-1 albino mouse assessed as protection against maximal electroshock-induced seizures after 4 hrs; assay type: functional
Vibrio harveyi [25] = assay: Induction of mutagenecity in Vibrio harveyi BB7X; assay type: organism-based; settings: in vivo
[26] = biological target: Sodium channel protein type 2 subunit alpha (Homo sapiens) (UniProt Q99250); assay: Inhibition of NaV1.2 channel (unknown origin) at 100 uM by electrophysiology
Rattus norvegicus [27] = assay: Neurotoxicity in Sprague-Dawley albino rat assessed as motor impairment at 30 mg/kg, po; assay type: toxicity, organism-based; design: dose 30 mg/kg, route oral; settings: in vivo
[28] = biological target: Sodium channel protein type 2 subunit alpha (Homo sapiens) (UniProt Q99250); assay: Inhibition of NaV1.2 channel (unknown origin) at 1 uM by electrophysiology
Rattus norvegicus [29] = assay: Anticonvulsant activity in Sprague-Dawley albino rat assessed as time of peak effect for protection against maximal electroshock-induced seizures at 30 mg/kg, po; assay type: functional
Vibrio harveyi [30] = assay: Antimutagenic activity in Vibrio harveyi BB7M assessed as inhibition of 4-nitroquinoline-N-oxide-induced mutation; assay type: functional
Mus musculus [31] = assay: Anticonvulsant activity in CF-1 albino mouse assessed as protection against maximal electroshock-induced seizures at 300 mg/kg, ip after 0.5 hrs; assay type: functional, organism-based; design: dose 300 mg/kg
Rattus norvegicus [32] = assay: Anticonvulsant activity in Sprague-Dawley albino rat assessed as protection against maximal electroshock-induced seizures at 30 mg/kg, po after 2 hrs; assay type: functional
Mus musculus [33] = assay: Anticonvulsant activity in CF-1 albino mouse assessed as protection against 6 Hz psychomotor seizure at 100 mg/kg, ip after 0.5 hrs; assay type: functional
Mus musculus [34] = assay: Anticonvulsant activity in CF-1 albino mouse assessed as protection against 6 Hz psychomotor seizure at 100 mg/kg, ip after 4 hrs; assay type: functional
[35] = biological target: Sodium channel protein type 2 subunit alpha (Homo sapiens) (UniProt Q99250); assay: Inhibition of NaV1.2 channel (unknown origin) at 0.1 uM by electrophysiology
[36] = biological target: Sodium channel protein type 2 subunit alpha (Homo sapiens) (UniProt Q99250); assay: Inhibition of NaV1.2 channel (unknown origin) at 10 uM by electrophysiology
[37] = Neurotoxicity in ip dosed CF-1 albino mouse after 4 hrs by rotarod test; assay type: toxicity, organism-based; settings: CF-1, mouse, in vivo
Mus musculus [38] = assay: Neurotoxicity in CF-1 albino mouse at 300 mg/kg, ip after 0.5 hrs by rotarod test; assay type: toxicity, organism-based; design: dose 300 mg/kg, route intraperitoneal; settings: in vivo
Rattus norvegicus [39] = species: Rattus norvegicus; assay: Ratio of phenytoin ED50 to compound ED50 for Sprague-Dawley albino rat; assay type: functional

Sequence of Sodium channel protein type 2 subunit alpha (Homo sapiens) (Q99250 whole entry, looked up): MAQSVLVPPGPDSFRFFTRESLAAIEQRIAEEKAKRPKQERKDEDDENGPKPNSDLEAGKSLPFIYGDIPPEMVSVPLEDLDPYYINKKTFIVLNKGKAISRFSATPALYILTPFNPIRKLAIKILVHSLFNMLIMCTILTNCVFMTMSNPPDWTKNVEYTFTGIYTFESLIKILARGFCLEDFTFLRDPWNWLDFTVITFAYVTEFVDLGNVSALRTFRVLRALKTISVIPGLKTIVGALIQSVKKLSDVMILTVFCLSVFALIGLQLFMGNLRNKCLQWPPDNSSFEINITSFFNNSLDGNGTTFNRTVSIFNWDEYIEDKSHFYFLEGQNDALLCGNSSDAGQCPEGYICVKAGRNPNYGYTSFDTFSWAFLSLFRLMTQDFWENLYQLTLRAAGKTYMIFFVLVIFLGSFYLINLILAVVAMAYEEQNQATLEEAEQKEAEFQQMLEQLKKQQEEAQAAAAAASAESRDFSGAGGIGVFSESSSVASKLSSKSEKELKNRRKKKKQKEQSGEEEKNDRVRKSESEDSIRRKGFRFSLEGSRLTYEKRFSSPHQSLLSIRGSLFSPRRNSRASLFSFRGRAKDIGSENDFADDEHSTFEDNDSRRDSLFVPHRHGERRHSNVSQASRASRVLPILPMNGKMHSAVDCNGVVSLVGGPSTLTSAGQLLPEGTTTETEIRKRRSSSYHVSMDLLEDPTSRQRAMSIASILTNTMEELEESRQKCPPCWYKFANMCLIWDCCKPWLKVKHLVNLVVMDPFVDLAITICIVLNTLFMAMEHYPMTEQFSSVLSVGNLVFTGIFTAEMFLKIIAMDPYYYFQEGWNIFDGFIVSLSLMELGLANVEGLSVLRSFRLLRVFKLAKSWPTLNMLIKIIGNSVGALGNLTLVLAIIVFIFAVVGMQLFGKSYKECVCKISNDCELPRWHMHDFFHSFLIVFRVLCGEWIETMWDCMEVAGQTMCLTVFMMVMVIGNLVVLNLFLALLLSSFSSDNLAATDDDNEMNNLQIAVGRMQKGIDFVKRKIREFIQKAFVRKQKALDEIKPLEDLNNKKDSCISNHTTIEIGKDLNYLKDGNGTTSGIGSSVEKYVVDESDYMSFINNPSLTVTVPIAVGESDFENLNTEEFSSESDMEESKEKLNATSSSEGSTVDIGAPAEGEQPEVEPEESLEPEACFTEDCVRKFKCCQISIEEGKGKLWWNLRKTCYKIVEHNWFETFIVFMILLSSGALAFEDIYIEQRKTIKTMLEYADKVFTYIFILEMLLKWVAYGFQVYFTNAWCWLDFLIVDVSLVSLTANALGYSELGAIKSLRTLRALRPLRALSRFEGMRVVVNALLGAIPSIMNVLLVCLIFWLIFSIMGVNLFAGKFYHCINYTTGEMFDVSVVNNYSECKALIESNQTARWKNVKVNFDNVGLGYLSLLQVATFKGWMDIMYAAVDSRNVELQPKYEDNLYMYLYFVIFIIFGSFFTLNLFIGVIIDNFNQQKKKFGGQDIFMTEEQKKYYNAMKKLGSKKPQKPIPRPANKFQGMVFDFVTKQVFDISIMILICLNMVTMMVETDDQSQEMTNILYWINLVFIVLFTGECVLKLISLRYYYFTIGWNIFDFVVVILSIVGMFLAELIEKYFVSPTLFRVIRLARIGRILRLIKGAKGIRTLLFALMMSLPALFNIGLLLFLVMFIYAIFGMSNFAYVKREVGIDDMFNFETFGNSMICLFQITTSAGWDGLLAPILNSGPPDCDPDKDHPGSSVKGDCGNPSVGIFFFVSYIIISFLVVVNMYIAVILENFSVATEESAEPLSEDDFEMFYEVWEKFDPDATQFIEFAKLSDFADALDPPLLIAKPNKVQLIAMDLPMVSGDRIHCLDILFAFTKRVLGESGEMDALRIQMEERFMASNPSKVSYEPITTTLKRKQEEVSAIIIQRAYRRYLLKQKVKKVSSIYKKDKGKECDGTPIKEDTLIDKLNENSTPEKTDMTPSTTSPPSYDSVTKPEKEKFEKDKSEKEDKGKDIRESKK

Row | Compound | Activity (Rattus norvegicus [2]) | TD50 [3] | Time (Mus musculus [7]) | ED50 (Mus musculus [8]) | Activity (Rattus norvegicus [10]) | Activity (Vibrio harveyi [11]) | Activity (Rattus norvegicus [12]) | Activity (Vibrio harveyi [13]) | Activity (Vibrio harveyi [14]) | ED50 (Rattus norvegicus [16]) | Ratio TD50/ED50 (Rattus norvegicus [17]) | Activity (Mus musculus [18]) | Ratio TD50/ED50 (Mus musculus [19]) | TD50 [20] | Activity (Rattus norvegicus [23]) | MED50 (Mus musculus [24]) | Activity (Vibrio harveyi [25]) | inhibition [26] | Activity (Rattus norvegicus [27]) | inhibition [28] | also measured
1 | CC1(c2ccccc2)CC(=O)N(CN2CCN(c3cccc(Cl)c3)CC2)C1=O (centres undefined) | 50% | > 250 mg/kg | 6 h | 41.1 mg/kg | 25% | Non-toxic | inactive | Non-toxic | Non-toxic | 27.9 mg/kg | >8.95 | 50% | 12.08 | 496 mg/kg | 25% | 30 mg/kg | Non-toxic | 86.9% | Non-toxic | 7.76% | Activity (Mus musculus [1]): Non-toxic; inhibition (INH) (Vibrio harveyi [4]): 57%; Activity (Mus musculus [5]): 50%; inhibition (INH) (Vibrio harveyi [6]): 0%; Activity (Mus musculus [9]): inactive; TD50 at 0.5 h [15]: 300 mg/kg; Activity (Mus musculus [21]; route intraperitoneal): 50%; inhibition (INH) (Vibrio harveyi [22]): 25%; Time (Rattus norvegicus [29]): 2 h; inhibition (INH) (Vibrio harveyi [30]): 61%; Activity (Mus musculus [31]): inactive; Activity (Rattus norvegicus [32]): Active; Activity (Mus musculus [33]; route intraperitoneal): 25%; Activity (Mus musculus [34]; route intraperitoneal): 25%; inhibition [35]: 16.3%; inhibition [36]: 39.6%
2 | CC1(c2ccccc2)CC(=O)N(CN2CCN(c3ccc(F)cc3)CC2)C1=O (centres undefined) | 75% | 65.6 mg/kg | 8 h | 120 mg/kg | 50% | Non-toxic | 25% | Non-toxic | Non-toxic | 7.78 mg/kg | 8.43 | 25% | 4.16 | > 500 mg/kg | 25% | 100 mg/kg | Non-toxic | 64% | Non-toxic | 14.9% | inhibition (INH) (Vibrio harveyi [4]): 49%; inhibition (INH) (Vibrio harveyi [6]): 0%; Activity (Mus musculus [9]; route intraperitoneal): 50%; TD50 at 4 h [37]: 300 mg/kg; Activity (Mus musculus [21]): Active; inhibition (INH) (Vibrio harveyi [22]): 8%; Activity (Mus musculus [38]): Non-toxic; Ratio ED50 (Rattus norvegicus [39]): 3.5; Time (Rattus norvegicus [29]): 4 h; inhibition (INH) (Vibrio harveyi [30]): 62%; Activity (Mus musculus [31]): inactive; Activity (Rattus norvegicus [32]): 75%; Activity (Mus musculus [33]): inactive; Activity (Mus musculus [34]): Active; inhibition [35]: 10.6%; inhibition [36]: 26.8%
3 | CC1(c2ccccc2)CC(=O)N(CN2CCN(c3ccc(Cl)c(Cl)c3)CC2)C1=O (centres undefined) | Active | 168 mg/kg | 4 h | 37.3 mg/kg | inactive | Toxic | inactive | Non-toxic | Toxic | 15.1 mg/kg | 11.09 | 25% | >13.41 | > 500 mg/kg | inactive | 30 mg/kg | Non-toxic | 96.7% | Non-toxic | 15.1% | Activity (Mus musculus [1]): Non-toxic; Activity (Mus musculus [5]): 50%; Activity (Mus musculus [9]; route intraperitoneal): 25%; TD50 at 0.5 h [15]: 300 mg/kg; Activity (Mus musculus [21]): inactive; Time (Rattus norvegicus [29]): 4 h; Activity (Mus musculus [31]): inactive; Activity (Rattus norvegicus [32]): 50%; Activity (Mus musculus [33]): inactive; Activity (Mus musculus [34]): inactive; inhibition [35]: 3.08%; inhibition [36]: 58.6%

Source: ChEMBL document CHEMBL2417397, “Synthesis and biological properties of new N-Mannich bases derived from 3-methyl-3-phenyl- and 3,3-dimethyl-succinimides. Part V” (Eur J Med Chem, 2013)
